For 3 compounds, IC50, GI50 and fraction unbound results are on record in patent US11945812B2, “Annulated 2-amino-3-cyano thiophenes and derivatives for the treatment of cancer” (Boehringer Ingelheim International GmbH, priority 2020, dated 2024).

Sequence of Ba/F3 cells bearing a KRAS G12C mutation (P01116 whole entry G12C): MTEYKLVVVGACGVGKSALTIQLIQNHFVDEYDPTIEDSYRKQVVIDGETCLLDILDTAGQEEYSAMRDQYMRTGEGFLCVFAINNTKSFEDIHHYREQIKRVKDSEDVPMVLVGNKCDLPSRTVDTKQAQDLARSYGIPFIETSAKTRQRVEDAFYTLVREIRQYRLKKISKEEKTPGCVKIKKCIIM

The first series relates to NCI-H358 cells. Put plainly: NCI-H358 CTG proliferation assay (120 h) (NSCLC). In kind it is cell-based. To be noted: Homo sapiens, read-out: IC50 NCl-H358. The method, then:
NCI-H358 CTG Proliferation Assay (120 h) (NSCLC)
NCI-H358 cells (ATCC No. CRL-5807) were dispensed into white bottom opaque 96 well plates (Perkin Elmer cat no. 5680) at a density of 2000 cells per well in 100 μL RPMI-1640 ATCC-Formulation (Gibco # A10491)+10% FCS. Cells were incubated overnight at 37° C. in a humidified tissue culture incubator at 5% CO2. Compounds (10 mM stock in DMSO) were added at logarithmic dose series using the HP Digital Dispenser D300 (Tecan), normalizing for added DMSO. For the TO time point measurement, untreated cells were analyzed at the time of compound addition. Plates were incubated for 120 hours, and cell viability was measured using CellTiter-Glo luminescent cell viability reagent (Promega product code G7570). Viability (stated as percent of control) is defined as relative luminescence units RLU of each well divided by the RLU of cells in DMSO controls. IC50 values were determined from viability measurements by non-linear regression using a four parameter model.
As to `C=CC(=O)N1CCN(c2cc(O[C@@H](C)[C@@H]3CCCN3C)nc(-c3cc([C@@]4(C)CCCc5sc(N)c(C#N)c54)on3)n2)[C@H](C)C1` [Ib-1], the IC50 (as a rule, the concentration at which inhibition is half-maximal) was 1.87 nM.

`C=CC(=O)N1[C@@H](C)CN(c2cc(O[C@@H](C)[C@@H]3CCCN3C)nc(-c3cc([C@@]4(C)CCCc5sc(N)c(C#N)c54)on3)n2)C[C@@H]1C` [Ib-4]: the IC50 came to 0.55 nM.

Turning to `C=CC(=O)N1CCN(c2cc(O[C@@H](C)[C@@H]3CCCN3C)nc(-c3cc([C@@]4(C)CCCc5sc(N)c(C#N)c54)on3)n2)CC12CC2` [Ib-5], the IC50 stood at 9.68 nM.

For a further series, the target named is Ba/F3 cells bearing a KRAS G12C mutation (Homo sapiens, UniProt P01116, G12C, cells depend on it). Put plainly: Ba/F3 cell model proliferation assay (AlamarBlue, 72 h). In kind it is cell-based. To be noted: Ba/F3 KRAS G12C cells, 72 h, 10% FCS, uncorrected; read-out: IC50 Ba/F3 KRASG12C. The method, then:
Ba/F3 Cell Model Generation and Proliferation Assay
Plasmids containing KRASG12 mutants were obtained from GeneScript. To generate KRASG12-dependent Ba/F3 models, Ba/F3 cells were transduced with retroviruses containing vectors that harbor KRASG12 isoforms. Platinum-E cells (Cell Biolabs) were used for retrovirus packaging. Retrovirus was added to Ba/F3 cells. To ensure infection, 4 μg/mL polybrene was added and cells were spinfected. […] Cells with an infection efficiency of 10% to 20% were further cultivated and puromycin selection with 1 μg/mL was initiated. As a control, parental Ba/F3 cells were used to show selection status. Selection was considered successful when parental Ba/F3 cells cultures died. To evaluate the transforming potential of KRASG12 mutations, the growth medium was no longer supplemented with IL-3. Ba/F3 cells harboring the empty vector were used as a control. Approximately ten days before conducting the experiments, puromycin was left out.
All treatments were performed in technical duplicates. The assay is run using a fully automated robotic system. Treated cells were incubated for 72 h at 37° C. with 5% CO2. AlamarBlue™ (ThermoFisher), a viability stain, was added and fluorescence measured in the PerkinElmer Envision HTS Multilabel Reader.
In general terms: Resazurin is reduced to fluorescent resorufin, in cell work by metabolically active cells.
Turning to `C=CC(=O)N1CCN(c2cc(O[C@@H](C)[C@@H]3CCCN3C)nc(-c3cc([C@@]4(C)CCCc5sc(N)c(C#N)c54)on3)n2)[C@H](C)C1` [Ib-1], the GI50 was determined as 1.8 nM.

Take `C=CC(=O)N1[C@@H](C)CN(c2cc(O[C@@H](C)[C@@H]3CCCN3C)nc(-c3cc([C@@]4(C)CCCc5sc(N)c(C#N)c54)on3)n2)C[C@@H]1C` [Ib-4]: the GI50 came to 1.7 nM.

In the case of `C=CC(=O)N1CCN(c2cc(O[C@@H](C)[C@@H]3CCCN3C)nc(-c3cc([C@@]4(C)CCCc5sc(N)c(C#N)c54)on3)n2)CC12CC2` [Ib-5], the GI50 is 3.8 nM.

The same series, now with this note: corrected by plasma protein binding in 10% FCS (fraction unbound); read-out: IC50 Ba/F3 KRASG12C (corrected).
`C=CC(=O)N1CCN(c2cc(O[C@@H](C)[C@@H]3CCCN3C)nc(-c3cc([C@@]4(C)CCCc5sc(N)c(C#N)c54)on3)n2)[C@H](C)C1` [Ib-1]: the GI50 came to 0.14 nM.

For the compound `C=CC(=O)N1[C@@H](C)CN(c2cc(O[C@@H](C)[C@@H]3CCCN3C)nc(-c3cc([C@@]4(C)CCCc5sc(N)c(C#N)c54)on3)n2)C[C@@H]1C` [Ib-4], the GI50 was determined as 0.09 nM.

For `C=CC(=O)N1CCN(c2cc(O[C@@H](C)[C@@H]3CCCN3C)nc(-c3cc([C@@]4(C)CCCc5sc(N)c(C#N)c54)on3)n2)CC12CC2` [Ib-5], the GI50 was determined as 0.22 nM.

For another series, the system named is MiaPaCa-2 cells. The series is described as follows: MiaPaCa-2 CTG proliferation assay (pancreatic cancer). In kind it is cell-based. To be noted: Homo sapiens, MIA PaCa-2, 120 h; MiaPaCa-2 CTG proliferation, 5 days; read-out: IC50 MiaPACA2. The procedure: MiaPaCa-2 CTG Proliferation Assay (Pancreatic Cancer)
MiaPaCa-2 cells (ATCC® CRM-CRL-1420™) were grown in cell culture flasks (175 cm^2) using DMEM medium supplemented with 10% fetal bovine serum. […] Materials used for the assay were CulturPlate-384, White Opaque 384-well microplate, Sterile and Tissue Culture Treated (Perkin Elmer #6007680), DMEM medium and FBS # SH30071.03 (HyClone).
(§1) The proliferation assays started (day1) with seeding cells in flat bottom 384 well microtiter plates in 90 μL DMEM medium supplemented with 10% FBS at a density of 500 cells/well. Any other luminescence compatible plate format is possible. On day 2, 10 μL dilutions of the test compounds covering a concentration range between app. 0, 1 and 10.000 nM were added to the cells. Cells were incubated for 5 days in a humidified, incubator with 5% CO2 at 37° C. On day 7 100 μl of Cell Titer Glow reagent (Cell titer Glo Luminescent Cat. No. G7571, Promega) were added to each well and incubated for additional 10 min at room temperature (with agitation). Luminescence was measured on a Wallac Victor using standard luminescence read out. IC50 values were calculated using standard Levenburg Marquard algorithms (GraphPad Prism).
As for `C=CC(=O)N1CCN(c2cc(O[C@@H](C)[C@@H]3CCCN3C)nc(-c3cc([C@@]4(C)CCCc5sc(N)c(C#N)c54)on3)n2)[C@H](C)C1` [Ib-1], the IC50 was found to be 22.6 nM.

For `C=CC(=O)N1[C@@H](C)CN(c2cc(O[C@@H](C)[C@@H]3CCCN3C)nc(-c3cc([C@@]4(C)CCCc5sc(N)c(C#N)c54)on3)n2)C[C@@H]1C` [Ib-4], the IC50 was 20.1 nM.

Regarding `C=CC(=O)N1CCN(c2cc(O[C@@H](C)[C@@H]3CCCN3C)nc(-c3cc([C@@]4(C)CCCc5sc(N)c(C#N)c54)on3)n2)CC12CC2` [Ib-5], the IC50 was determined as 28 nM.

System in the next series: not listed separately
Put plainly: Plasma protein binding (equilibrium dialysis), human plasma. In kind it is in vitro ADME. The settings on record: read-out: PPB human fu. The procedure:
Plasma Protein Binding (PPB)
Binding of test compound to plasma was determined using equilibrium dialysis (ED) and quantitative mass spectrometry interfaced with liquid chromatography (LC-MS). In brief, ED was performed with dialysis devices consisting of two chambers separated by a semipermeable membrane with a molecular weight cut-off of 5-10 kg/mol. One chamber was filled with commercially sourced plasma (mouse and human plasma, respectively) or serum (10% FCS in PBS) containing 1-10 μmol/L test compound and the other chamber was filled with phosphate-buffer saline (PBS) with or without dextran. The dialysis chamber was incubated for 3-5 hours at 37° C. After incubation, protein was precipitated from aliquots of each chamber and the concentration of test compound in the supernatant of the plasma-containing compartment (cplasma) and of the buffer-containing compartment (Cbuffer) was determined by LC-MS. The fraction of unbound test compound (not bound to plasma) (fu) was calculated according to the following equation: […]
In general terms: Equilibrium dialysis compares concentrations on both sides of a semipermeable membrane.
Regarding `C=CC(=O)N1CCN(c2cc(O[C@@H](C)[C@@H]3CCCN3C)nc(-c3cc([C@@]4(C)CCCc5sc(N)c(C#N)c54)on3)n2)[C@H](C)C1` [Ib-1], the fraction unbound was determined as 0.032.

`C=CC(=O)N1[C@@H](C)CN(c2cc(O[C@@H](C)[C@@H]3CCCN3C)nc(-c3cc([C@@]4(C)CCCc5sc(N)c(C#N)c54)on3)n2)C[C@@H]1C` [Ib-4]: the fraction unbound is 0.021.

Take `C=CC(=O)N1CCN(c2cc(O[C@@H](C)[C@@H]3CCCN3C)nc(-c3cc([C@@]4(C)CCCc5sc(N)c(C#N)c54)on3)n2)CC12CC2` [Ib-5]: the fraction unbound was 0.019.

For another series, the system named is SW837 cells. The series is described as follows: SW837 CTG proliferation assay (CRC). The format is cell-based. The settings on record: Homo sapiens; SW837 CTG proliferation; read-out: IC50 SW837. The procedure: SW837 CTG Proliferation Assay (CRC)
SW837 cells (ATCC #CCL-235) were grown in cell culture flasks (175 cm^2) using L-15 10% FCS, 1% L-Glu, 1×NEAA and 1×Na-Pyrovat. Cultures were incubated at 37° C. and 0% CO2 in a humidified atmosphere, with medium change or subcultivation 2-3 times a week. Materials used for the assay were CulturPlate-384, White Opaque 384-well Microplate, Sterile and Tissue Culture Treated (Perkin Elmer #6007680), Leibovitz L15 Medium and FBS # SH30071.03 (HyClone).
as §1, with “L-15” for “DMEM medium supplemented with”, “FCS, 1% L-Glu, 1×NEAA and 1× Na-Pyrovat” for “FBS”, “humidified, CO2 controlled (no CO2)” for “humidified,”, “incubator” for “incubator with 5% CO2”, “μL” for “μl”
On to `C=CC(=O)N1CCN(c2cc(O[C@@H](C)[C@@H]3CCCN3C)nc(-c3cc([C@@]4(C)CCCc5sc(N)c(C#N)c54)on3)n2)[C@H](C)C1` [Ib-1], for which the IC50 turned out to be 0.67 nM.

As for `C=CC(=O)N1[C@@H](C)CN(c2cc(O[C@@H](C)[C@@H]3CCCN3C)nc(-c3cc([C@@]4(C)CCCc5sc(N)c(C#N)c54)on3)n2)C[C@@H]1C` [Ib-4], the IC50 was 0.69 nM.

As to `C=CC(=O)N1CCN(c2cc(O[C@@H](C)[C@@H]3CCCN3C)nc(-c3cc([C@@]4(C)CCCc5sc(N)c(C#N)c54)on3)n2)CC12CC2` [Ib-5], the IC50 was 15.8 nM.

The subject of the next series is ERK phosphorylation in NCI-H358_Cas9_SOS2. Put plainly: ERK phosphorylation assay 2 (AlphaLISA SureFire Ultra p-ERK1/2), SOS2 knock-out. In kind it is cell-based. To be noted: Homo sapiens, NCI-H358; assay 2 (marked with *); read-out: IC50 H358 pERK. The source says:
ERK Phosphorylation Assay
Materials Used for the Assay;
Consider `C=CC(=O)N1CCN(c2cc(O[C@@H](C)[C@@H]3CCCN3C)nc(-c3cc([C@@]4(C)CCCc5sc(N)c(C#N)c54)on3)n2)[C@H](C)C1` [Ib-1], for which the IC50 is 1.7 nM.

As to `C=CC(=O)N1[C@@H](C)CN(c2cc(O[C@@H](C)[C@@H]3CCCN3C)nc(-c3cc([C@@]4(C)CCCc5sc(N)c(C#N)c54)on3)n2)C[C@@H]1C` [Ib-4], the IC50 was found to be 2.4 nM.

`C=CC(=O)N1CCN(c2cc(O[C@@H](C)[C@@H]3CCCN3C)nc(-c3cc([C@@]4(C)CCCc5sc(N)c(C#N)c54)on3)n2)CC12CC2` [Ib-5]: the 50% inhibitory concentration (IC50) is 6.7 nM.
